In brackets after ≈: the same amount, converted by molar mass.
Legend:
[1] = Solubility of the raw polyphenols (A) and (B) in water at 25° C.; conditions: for Solubility of (B) in water (25° C.): water-soluble polyphenol (B) alone; for Solubility of (A) in water (25° C.): hardly water-soluble polyphenol (A) alone
From the text: (§1) The term “hardly water-soluble polyphenol” used in the present invention refers to the one having a poor solubility in water. […] The solubility represents herein a gram number of the solute being dissolved in 1 L of the solution with a unit of [g/L].

physchem = conditions: 25 °C, water
From the text: as §1

Compound	Solubility of (B) in water (25° C.) [1]	Solubility of (A) in water (25° C.) [1] [µg/mL]	further results
O=C(O[C@@H]1Cc2c(O)cc(O)cc2O[C@@H]1c1cc(O)c(O)c(O)c1)c1cc(O)c(O)c(O)c1 [Catechin, epigallocatechin gallate]	15 g/L	–	–
O=c1oc2c(O)c(O)cc3c(=O)oc4c(O)c(O)cc1c4c23 [Ellagic acid, ellagic acid]	–	4	solubility ([1]; 25 °C): 4 µg/mL (≈ 13.2 µM)
COc1ccc([C@@H]2CC(=O)c3c(O)cc(O[C@@H]4O[C@H](CO[C@@H]5O[C@@H](C)[C@H](O)[C@@H](O)[C@H]5O)[C@@H](O)[C@H](O)[C@H]4O)cc3O2)cc1O [Hesperidin, hesperidin]	–	50	–
c1cc2c(cc1[C@H]1OC[C@H]3[C@@H]1CO[C@@H]3c1ccc3c(c1)OCO3)OCO2 [Sesamin, sesamin]	–	–	solubility (physchem): 0.14 µg/mL (≈ 0.395 µM)
glucosylhesperidin	≥ 300 or g/L	–	–

Reference: patent publication US9669047B2, “Method for producing polyphenol composition” (KAO CORPORATION, priority 2012, dated 2017)
